Assay results as given in article PMC11371747, “The role of l-leucovorin uptake and metabolism in the modulation of 5-fluorouracil efficacy and antifolate toxicity” (Frontiers in Pharmacology, 2024).
Like-named read-outs stand apart in the source and are kept apart here.

Legend:
[1] = target: T1, thymidylate synthase (TS) (Homo sapiens, UniProt P04818); assay: TS in situ inhibition assay (TSIA) in colon cancer cells; assay type: cell-based; conditions: WiDr, 4 h, antifolate alone
T1 construct: The principle of this assay is the measurement of TS enzymatic activity in intact cells; endogenous in cells; host or cells: colon cancer cell lines (WiDr, WiDr-LF, SW1398, LS174T and others)
Description: The principle of this assay is the measurement of TS enzymatic activity in intact cells. Intact cells will readily internalize radioactively labelled [5-^3H]-deoxycytidine, which will be rapidly converted by deoxycytidine kinase (dCK) to [5-^3H]-dCMP and subsequently deaminated to [5-^3H]-dUMP, which will then serve as a substrate in the TS catalysed reaction to dTMP and ^3H2O; the quantity of ^3H2O formed over time is a measure of intracellular TS activity. […] This is because dCK has a higher, cell cycle independent activity than thymidine kinase 1, which is a cell cycle dependent enzyme. For this purpose, cancer cells were cultured in six wells plates at 2.5 × 10^5 cells/2 mL/well for 24 h. Thereafter, cells were exposed to drugs with or without the LV formulations at the indicated concentrations for 4 h. 2 h before the end of the incubation period [5-^3H]-2′-deoxycytidine (final concentration 1 µM) was added to the cells. […] In most cell lines we quantified dCK activity and dCK mRNA levels.

H28 cells = assay: Growth inhibition, SRB assay, H28 (MPM); assay type: cell-based, human; conditions: for IC50: H28, SRB, read-out: IC50, 72 h drug exposure
Method: Briefly, cells were seeded in triplicate in 96-well plates at their pre-established optimal density (CHO cells: 2,500 cells/100 μL; WiDr and HT29: 3,500 cells/100 μL; WiDr-LF/LV, LS174T: 5,000 cells/100 μL; CaCo2, CaCo2-LF/LV, H292, H28 and MSTO-211H: 6,000 cells/100 μL; H460, SW948 and SW1398: 7,000 cells/100 μL) and were allowed to attach for ∼ 24 h at 37°C in 5% CO2 and 100% humidified incubator. Thereafter, 100 μL of drug dilution without LV, or with 5 μM l-LV/5 μM d-LV/10 μM dL-LV (or any LV alone) were added. Cells were allowed to grow for 72 h at 37°C in 5% CO2 and 100% humidity. The t = 0 h control plate consisted of cells plated on the same day as the other cells, but after 24 h at 37°C in 5% CO2 and 100% humidity, only 100 μL medium was added and the cells were fixed immediately with 50% trichloroacetic acid (TCA) in milliQ water (25 μL per well) and put at 4°C for at least 1 h. Plates were washed five times with water and dried. Cells were stained with the SRB protein dye (0.4% (w/v) in 1% acetic acid. Excess dye was washed away four times with 1% acetic acid and plates were dried again. 200 μL of Tris (10 mM Tris (hydroxymethyl)-aminomethane in MQ) was added and optical density (OD) was read at 492 nm after mixing 2–3 min on a plate shaker.

T1 sequence (P04818 2-313 limits assumed): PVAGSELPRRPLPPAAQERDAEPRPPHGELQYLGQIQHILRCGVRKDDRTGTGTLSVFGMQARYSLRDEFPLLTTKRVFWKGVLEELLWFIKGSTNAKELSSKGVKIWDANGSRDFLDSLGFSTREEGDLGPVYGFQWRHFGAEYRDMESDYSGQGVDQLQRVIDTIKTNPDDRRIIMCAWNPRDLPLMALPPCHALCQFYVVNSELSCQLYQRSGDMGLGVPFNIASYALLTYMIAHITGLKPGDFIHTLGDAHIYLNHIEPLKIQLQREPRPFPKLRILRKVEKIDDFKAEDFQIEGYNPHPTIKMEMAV

**Q.** For `C#CCC(Cc1cnc2nc(N)nc(N)c2n1)c1ccc(C(=O)N[C@@H](CCC(=O)O)C(=O)O)cc1` (stereo partly shown) [PLX, pralatrexate], which IC50 [1] is on record?
**A.** The IC50 was 17.7 ± 4.7 nM.

**Q.** What about the IC50 (H28 cells; antifolate + 5 µM l-LV) of the same compound?
**A.** Its IC50 is 14600 nM.

**Q.** And the “Relative protection by 5 µM l-LV” value (H28 cells; H28, ratio IC50 antifolate + LV / IC50 antifolate)?
**A.** The value was 1834 ± 108.

**Q.** What about the IC50 (H28 cells; Homo sapiens, NCI-H28, 72 h, antifolate alone) of the same compound?
**A.** Its IC50 is 11 ± 0.6 nM.
